For test [1], the target named is T1, D(1A) dopamine receptor (Rattus norvegicus, UniProt P18901). As to the kind of experiment: Binding affinity to dopamine D1 receptor high binding site by radioligand displacement assay. On the technique in general: In a radioligand displacement assay an active substance lowers the binding of a labelled ligand.
The target of test [2] is T1, D(1A) dopamine receptor. Nature of the test: Binding affinity to dopamine D1 receptor low binding site by radioligand displacement assay.
The target of test [3] is T2, D(3) dopamine receptor (Homo sapiens, UniProt P35462). Nature of the test: Displacement of [3H]domperidone from human cloned dopamine D3 receptor high binding site expressed in mouse CCL1-3 cells by scintillation counting. Format: cell-based.
T2 sequence (P35462 whole entry): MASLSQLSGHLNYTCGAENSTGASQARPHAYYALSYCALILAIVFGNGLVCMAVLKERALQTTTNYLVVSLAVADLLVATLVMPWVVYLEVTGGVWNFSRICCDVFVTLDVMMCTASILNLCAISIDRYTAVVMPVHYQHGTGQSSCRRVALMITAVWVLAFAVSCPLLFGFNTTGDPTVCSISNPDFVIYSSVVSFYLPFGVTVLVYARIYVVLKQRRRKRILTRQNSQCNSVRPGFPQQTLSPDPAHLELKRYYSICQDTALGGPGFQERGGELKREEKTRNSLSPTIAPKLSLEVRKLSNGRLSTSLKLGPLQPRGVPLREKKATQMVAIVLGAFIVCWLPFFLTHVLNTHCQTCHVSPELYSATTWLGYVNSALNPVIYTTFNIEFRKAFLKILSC
The target of test [4] is T2, D(3) dopamine receptor. As to the kind of experiment: Displacement of [3H]domperidone from human cloned dopamine D3 receptor expressed in mouse CCL1-3 cells by scintillation counting. In kind it is cell-based.
The target of another test is D(2) dopamine receptor (Rattus norvegicus, UniProt P61169). As to the kind of experiment: Displacement of [3H]domperidone from dopamine D2 receptor low binding site in Sprague-Dawley rat striatum by scintillation counting.
D(2) dopamine receptor, sequence (P61169 whole entry): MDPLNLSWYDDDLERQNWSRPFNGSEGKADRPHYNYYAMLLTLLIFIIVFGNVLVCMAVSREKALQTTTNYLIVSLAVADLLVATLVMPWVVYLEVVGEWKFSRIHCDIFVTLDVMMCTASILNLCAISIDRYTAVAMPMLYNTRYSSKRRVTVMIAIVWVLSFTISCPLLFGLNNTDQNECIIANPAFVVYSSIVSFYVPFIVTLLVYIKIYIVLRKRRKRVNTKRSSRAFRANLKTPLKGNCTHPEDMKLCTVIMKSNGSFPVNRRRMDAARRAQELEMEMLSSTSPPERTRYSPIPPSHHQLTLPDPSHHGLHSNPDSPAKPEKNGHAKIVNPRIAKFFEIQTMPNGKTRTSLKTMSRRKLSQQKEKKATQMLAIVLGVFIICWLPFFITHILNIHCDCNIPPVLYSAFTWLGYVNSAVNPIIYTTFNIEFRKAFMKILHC
Test [5] concerns the target T2, D(3) dopamine receptor. As to the kind of experiment: Displacement of [3H]domperidone from human dopamine D3 receptor expressed in human HEK293 cells by scintillation counting. In kind it is cell-based.

T1 sequence (P18901 whole entry): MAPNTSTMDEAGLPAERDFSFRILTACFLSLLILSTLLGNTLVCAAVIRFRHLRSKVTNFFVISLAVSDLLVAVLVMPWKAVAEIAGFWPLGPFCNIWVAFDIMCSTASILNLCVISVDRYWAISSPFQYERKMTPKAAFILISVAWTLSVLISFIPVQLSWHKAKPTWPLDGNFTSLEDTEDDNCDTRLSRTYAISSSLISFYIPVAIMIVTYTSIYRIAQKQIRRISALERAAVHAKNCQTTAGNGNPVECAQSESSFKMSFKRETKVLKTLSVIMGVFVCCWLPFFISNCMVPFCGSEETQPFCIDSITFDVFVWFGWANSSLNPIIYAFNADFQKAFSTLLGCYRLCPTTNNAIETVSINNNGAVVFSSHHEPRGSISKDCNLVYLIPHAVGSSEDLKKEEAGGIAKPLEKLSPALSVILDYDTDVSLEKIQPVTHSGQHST

What is called Ki is the equilibrium dissociation constant of an inhibitor or competing ligand from its target. High values mean lower affinity, low ones higher affinity. Consider `CCCN1CCc2cc(F)cc3c2[C@H]1Cc1ccc(O)c(O)c1-3`, for which the inhibitory constant (Ki) entry on D(1A) dopamine receptor [1] is “Not Active”; on D(1A) dopamine receptor [2], greater than 5 µM; at D(3) dopamine receptor [3] it was 0.0038 µM; at D(3) dopamine receptor [4], greater than 10 µM.
Regarding `Oc1cccc2c1-c1cccc3c1[C@@H](C2)N(CCCF)CC3`, the inhibition constant (Ki) entry is “Not Active” on D(1A) dopamine receptor [1] and greater than 5 µM on D(1A) dopamine receptor [2].
For `CCCN1CCc2cc(OCCCF)cc3c2[C@H]1Cc1ccc(O)c(O)c1-3`, the Ki result on D(1A) dopamine receptor [1] is “Not Active”; at D(1A) dopamine receptor [2], greater than 5 µM; on D(3) dopamine receptor [3], 0.0011 µM.
As for `CCCN1CCc2cc(OCCF)cc3c2[C@H]1Cc1ccc(O)c(O)c1-3`, the Ki entry at D(1A) dopamine receptor [1] was “Not Active”; at D(1A) dopamine receptor [2], greater than 5 µM; on D(3) dopamine receptor [3] it was 0.0019 µM.
With `CCN1CCc2cc(OCCCF)cc3c2[C@H]1Cc1ccc(O)c(O)c1-3`, the Ki entry is “Not Active” at D(1A) dopamine receptor [1], greater than 5 µM on D(1A) dopamine receptor [2], 0.23 µM at D(3) dopamine receptor [3] and greater than 10 µM on D(3) dopamine receptor [4].
Taken in the same sequence, the figures for `CCN1CCc2cc(OCCF)cc3c2[C@H]1Cc1ccc(O)c(O)c1-3` were “Not Active”, greater than 5 µM, 0.25 µM and greater than 10 µM.
As to `CN1CCc2cc(OCCCF)cc3c2[C@H]1Cc1ccc(O)c(O)c1-3`, the Ki entry at D(1A) dopamine receptor [1] is “Not Active”; on D(1A) dopamine receptor [2], greater than 5 µM; at D(2) dopamine receptor, greater than 10 µM; on D(3) dopamine receptor [4], greater than 10 µM.
For the molecule `CN1CCc2cc(OCCF)cc3c2[C@H]1Cc1ccc(O)c(O)c1-3`, the values for the Ki entry on D(1A) dopamine receptor [1], at D(1A) dopamine receptor [2] and on D(3) dopamine receptor [4] were “Not Active”, 3.7 µM and greater than 10 µM, respectively.
Regarding `CCCN1CCc2cc(OCCCF)cc3c2[C@H]1Cc1cccc(O)c1-3`, the inhibition constant Ki entry on D(1A) dopamine receptor [1] was “Not Active”; at D(1A) dopamine receptor [2], greater than 5 µM.
As for `CCCN1CCc2cc(OCCF)cc3c2[C@H]1Cc1cccc(O)c1-3`, the inhibition constant (Ki) entry on D(1A) dopamine receptor [1] is “Not Active”; at D(1A) dopamine receptor [2], greater than 5 µM.
For the molecule `CCN1CCc2cc(OCCCF)cc3c2[C@H]1Cc1cccc(O)c1-3`, the Ki result at D(1A) dopamine receptor [1] is “Not Active”; on D(1A) dopamine receptor [2] it was greater than 5 µM.
Take `CCN1CCc2cc(OCCF)cc3c2[C@H]1Cc1cccc(O)c1-3`: the figures for the inhibition constant (Ki) entry at D(1A) dopamine receptor [1] and on D(1A) dopamine receptor [2] were “Not Active” and greater than 5 µM, respectively.
On to `CN1CCc2cc(OCCF)cc3c2[C@H]1Cc1cccc(O)c1-3`, for which the Ki result at D(1A) dopamine receptor [1] is given as “Not Active”.
Consider `CCCN1CCc2cccc3c2[C@H]1Cc1cccc(O)c1-3`, for which the inhibition constant Ki entry at D(1A) dopamine receptor [1] was “Not Active”; at D(3) dopamine receptor [3], 0.0012 µM.
As for `CCCN1CCc2cc(OC)cc3c2[C@H]1Cc1cccc(O)c1-3`, the values for the Ki entry at D(1A) dopamine receptor [1], on D(3) dopamine receptor [3] and on D(3) dopamine receptor [4] were “Not Active”, 0.13 µM and greater than 10 µM, respectively.
As for `CCCN1CCc2cc(OC)cc3c2[C@H]1Cc1ccc(O)c(O)c1-3`, the Ki is greater than 5 µM on D(1A) dopamine receptor [2] and 0.00102 µM on D(3) dopamine receptor [5].

Values taken from ChEMBL document CHEMBL1671824, “Synthesis and Evaluation of Fluorinated Aporphines: Potential Positron Emission Tomography Ligands for D2 Receptors” (ACS Med Chem Lett, 2011).
